Laboratory results taken from the NIST ThermoML archive (doi:10.1021/je200808q).

Test: mn = molality of the nth substance listed, in mol/kg
Conditions: Liquid, Taylor dispersion method

[Cl-].[K+] [potassium chloride] + O
Conditions	binary diffusion coefficient [m2/s]
298.15 K, 160 kPa, m1 = 0	1.94e-09
298.15 K, 240 kPa, m1 = 1	1.89e-09
298.15 K, 290 kPa, m1 = 2.5	2.02e-09
298.15 K, 480 kPa, m1 = 4.5	2.17e-09
298.15 K, 2290 kPa, m1 = 2.5	2.02e-09
298.15 K, 4500 kPa, m1 = 2.5	2.04e-09
298.15 K, 10170 kPa, m1 = 1	1.91e-09
298.15 K, 14990 kPa, m1 = 0	1.94e-09
298.15 K, 24920 kPa, m1 = 2.5	2.04e-09
298.15 K, 27060 kPa, m1 = 4.5	2.14e-09
298.15 K, 28210 kPa, m1 = 1	1.92e-09
298.15 K, 30920 kPa, m1 = 0	1.95e-09
298.15 K, 32600 kPa, m1 = 2.5	2.05e-09
298.15 K, 37390 kPa, m1 = 2.5	2.04e-09
298.15 K, 38630 kPa, m1 = 1	1.92e-09
298.15 K, 43800 kPa, m1 = 4.5	2.17e-09
298.15 K, 45590 kPa, m1 = 1	1.95e-09
298.15 K, 47430 kPa, m1 = 2.5	2.04e-09
298.15 K, 48170 kPa, m1 = 0	1.95e-09
298.15 K, 59030 kPa, m1 = 1	1.96e-09
298.15 K, 62940 kPa, m1 = 0	1.97e-09
298.15 K, 64970 kPa, m1 = 2.5	2.07e-09
298.15 K, 66020 kPa, m1 = 4.5	2.18e-09
298.15 K, 66170 kPa, m1 = 2.5	2.08e-09
298.15 K, 67070 kPa, m1 = 1	1.98e-09
298.15 K, 67630 kPa, m1 = 2.5	2.08e-09
323.15 K, 500 kPa, m1 = 4.5	3.34e-09
323.15 K, 580 kPa, m1 = 2.5	3.15e-09
323.15 K, 610 kPa, m1 = 1	3.03e-09
323.15 K, 640 kPa, m1 = 0	3.02e-09
323.15 K, 3950 kPa, m1 = 4.5	3.32e-09
323.15 K, 15300 kPa, m1 = 1	3.06e-09
323.15 K, 15460 kPa, m1 = 0	3.02e-09
323.15 K, 31370 kPa, m1 = 4.5	3.35e-09
323.15 K, 33580 kPa, m1 = 0	3.08e-09
323.15 K, 40890 kPa, m1 = 2.5	3.12e-09
323.15 K, 43400 kPa, m1 = 1	3.08e-09
323.15 K, 45210 kPa, m1 = 2.5	3.18e-09
323.15 K, 47480 kPa, m1 = 2.5	3.17e-09
323.15 K, 49570 kPa, m1 = 4.5	3.29e-09
323.15 K, 52060 kPa, m1 = 1	3.1e-09
323.15 K, 60490 kPa, m1 = 2.5	3.12e-09
323.15 K, 62690 kPa, m1 = 4.5	3.35e-09
323.15 K, 64860 kPa, m1 = 2.5	3.15e-09
323.15 K, 68560 kPa, m1 = 0	3.09e-09
323.15 K, 68970 kPa, m1 = 1	3.1e-09
348.15 K, 650 kPa, m1 = 0	4.48e-09
348.15 K, 660 kPa, m1 = 1	4.23e-09
348.15 K, 700 kPa, m1 = 2.5	4.52e-09
348.15 K, 730 kPa, m1 = 4.5	4.65e-09
348.15 K, 12830 kPa, m1 = 4.5	4.59e-09
348.15 K, 15720 kPa, m1 = 0	4.49e-09
348.15 K, 18050 kPa, m1 = 2.5	4.55e-09
348.15 K, 25820 kPa, m1 = 1	4.25e-09
348.15 K, 29270 kPa, m1 = 0	4.44e-09
348.15 K, 29960 kPa, m1 = 2.5	4.57e-09
348.15 K, 31120 kPa, m1 = 1	4.26e-09
348.15 K, 32970 kPa, m1 = 4.5	4.62e-09
348.15 K, 35870 kPa, m1 = 1	4.24e-09
348.15 K, 39760 kPa, m1 = 1	4.23e-09
348.15 K, 41210 kPa, m1 = 1	4.25e-09
348.15 K, 41980 kPa, m1 = 1	4.25e-09
348.15 K, 45150 kPa, m1 = 2.5	4.58e-09
348.15 K, 45330 kPa, m1 = 1	4.26e-09
348.15 K, 46780 kPa, m1 = 0	4.49e-09
348.15 K, 62420 kPa, m1 = 1	4.24e-09
348.15 K, 64020 kPa, m1 = 1	4.25e-09
348.15 K, 65910 kPa, m1 = 4.5	4.63e-09
348.15 K, 66700 kPa, m1 = 0	4.52e-09
348.15 K, 67090 kPa, m1 = 1	4.25e-09
348.15 K, 68900 kPa, m1 = 2.5	4.59e-09
373.15 K, 740 kPa, m1 = 4.5	6.25e-09
373.15 K, 820 kPa, m1 = 0	6.11e-09
373.15 K, 820 kPa, m1 = 1	5.94e-09
373.15 K, 940 kPa, m1 = 2.5	5.92e-09
373.15 K, 17140 kPa, m1 = 2.5	5.92e-09
373.15 K, 17780 kPa, m1 = 4.5	6.22e-09
373.15 K, 23410 kPa, m1 = 1	5.93e-09
373.15 K, 24180 kPa, m1 = 0	6.14e-09
373.15 K, 24360 kPa, m1 = 2.5	5.94e-09
373.15 K, 31320 kPa, m1 = 2.5	5.89e-09
373.15 K, 41280 kPa, m1 = 4.5	6.24e-09
373.15 K, 42090 kPa, m1 = 1	5.94e-09
373.15 K, 43130 kPa, m1 = 0	6.11e-09
373.15 K, 47550 kPa, m1 = 2.5	5.98e-09
373.15 K, 47900 kPa, m1 = 4.5	6.21e-09
373.15 K, 54290 kPa, m1 = 4.5	6.24e-09
373.15 K, 54410 kPa, m1 = 4.5	6.24e-09
373.15 K, 57260 kPa, m1 = 2.5	5.86e-09
373.15 K, 59590 kPa, m1 = 2.5	5.96e-09
373.15 K, 63050 kPa, m1 = 2.5	5.96e-09
373.15 K, 64210 kPa, m1 = 1	5.97e-09
373.15 K, 64280 kPa, m1 = 0	6.18e-09
373.15 K, 65700 kPa, m1 = 4.5	6.27e-09
423.15 K, 3080 kPa, m1 = 0	1.03e-08
423.15 K, 3410 kPa, m1 = 1	9.43e-09
423.15 K, 4440 kPa, m1 = 2.5	9.69e-09
423.15 K, 13020 kPa, m1 = 4.5	9.27e-09
423.15 K, 15130 kPa, m1 = 1	9.45e-09
423.15 K, 15180 kPa, m1 = 2.5	9.67e-09
423.15 K, 15260 kPa, m1 = 2.5	9.68e-09
423.15 K, 18510 kPa, m1 = 0	1.03e-08
423.15 K, 33580 kPa, m1 = 0	1.03e-08
423.15 K, 34630 kPa, m1 = 2.5	9.7e-09
423.15 K, 34720 kPa, m1 = 1	9.45e-09
423.15 K, 40540 kPa, m1 = 4.5	9.29e-09
423.15 K, 56030 kPa, m1 = 2.5	9.7e-09
423.15 K, 61620 kPa, m1 = 1	9.48e-09
423.15 K, 63300 kPa, m1 = 0	1.03e-08
423.15 K, 65050 kPa, m1 = 2.5	9.72e-09
423.15 K, 65640 kPa, m1 = 1	9.49e-09
423.15 K, 68930 kPa, m1 = 4.5	9.3e-09
